# Results published in ChEMBL document CHEMBL1201862, “PubChem BioAssay data set” (2004).
# Activity calls are given as the source filed them.
# How the values were obtained:
# [1] = molecular target: Induced myeloid leukemia cell differentiation protein Mcl-1 (Homo sapiens, UniProt Q07820); assay type: functional
# [2] = human group III sPLA2 inhibitors, dose response, biochemical, QFRET, IC50 (AID 743457);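 further: green fluorescence rise as the enzyme cleaves BODIPY PC-A2 in liposomes; potency for inhibition of the enzyme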
# [3] = microbe, parasite or virus in culture; assay type: functional; conditions: Mycobacterium tuberculosis
# [4] = molecular target: T1, Short transient receptor potential channel 4 (Mus musculus, UniProt Q9QUQ5); experiment: mouse TRPC4 channel activators, dose response, cell-based, HEK293 TRPC4/mu-opioid, Fluo-4 calcium (AID 434937); assay type: functional
# T1 sequence (Q9QUQ5 whole entry): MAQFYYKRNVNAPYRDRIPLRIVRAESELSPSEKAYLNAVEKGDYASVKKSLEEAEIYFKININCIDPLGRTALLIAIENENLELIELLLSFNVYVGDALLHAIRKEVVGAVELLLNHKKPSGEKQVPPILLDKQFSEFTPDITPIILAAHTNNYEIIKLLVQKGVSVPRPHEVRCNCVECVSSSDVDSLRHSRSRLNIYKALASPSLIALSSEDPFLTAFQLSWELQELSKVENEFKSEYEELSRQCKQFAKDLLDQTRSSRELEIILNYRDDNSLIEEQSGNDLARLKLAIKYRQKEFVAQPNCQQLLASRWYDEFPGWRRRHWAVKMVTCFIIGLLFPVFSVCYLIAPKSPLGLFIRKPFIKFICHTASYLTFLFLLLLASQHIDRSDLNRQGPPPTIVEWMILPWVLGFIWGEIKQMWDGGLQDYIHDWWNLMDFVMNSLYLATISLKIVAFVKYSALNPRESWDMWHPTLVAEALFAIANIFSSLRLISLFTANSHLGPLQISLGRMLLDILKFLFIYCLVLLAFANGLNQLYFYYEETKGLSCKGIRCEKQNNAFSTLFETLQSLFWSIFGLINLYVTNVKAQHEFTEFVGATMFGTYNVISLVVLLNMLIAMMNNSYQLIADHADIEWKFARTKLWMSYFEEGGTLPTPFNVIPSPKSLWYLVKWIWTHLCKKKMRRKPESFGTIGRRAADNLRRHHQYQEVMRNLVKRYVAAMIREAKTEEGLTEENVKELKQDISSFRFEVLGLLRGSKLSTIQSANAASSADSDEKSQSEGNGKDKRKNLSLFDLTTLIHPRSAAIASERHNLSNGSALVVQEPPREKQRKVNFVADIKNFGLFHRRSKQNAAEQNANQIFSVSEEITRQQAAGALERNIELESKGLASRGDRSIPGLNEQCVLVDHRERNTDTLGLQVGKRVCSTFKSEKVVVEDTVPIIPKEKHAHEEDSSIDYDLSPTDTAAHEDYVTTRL
# [5] = test system: Vero; experiment: cells; assay type: functional; conditions: Chlorocebus sabaeus
# [6] = molecular target: T2, High affinity choline transporter 1 (Homo sapiens, UniProt Q9GZV3); experiment: CHT inhibitors, dose response, cell-based, 5-point CRC, membrane potential dye (AID 504840); assay type: functional
# T2 sequence (Q9GZV3 whole entry): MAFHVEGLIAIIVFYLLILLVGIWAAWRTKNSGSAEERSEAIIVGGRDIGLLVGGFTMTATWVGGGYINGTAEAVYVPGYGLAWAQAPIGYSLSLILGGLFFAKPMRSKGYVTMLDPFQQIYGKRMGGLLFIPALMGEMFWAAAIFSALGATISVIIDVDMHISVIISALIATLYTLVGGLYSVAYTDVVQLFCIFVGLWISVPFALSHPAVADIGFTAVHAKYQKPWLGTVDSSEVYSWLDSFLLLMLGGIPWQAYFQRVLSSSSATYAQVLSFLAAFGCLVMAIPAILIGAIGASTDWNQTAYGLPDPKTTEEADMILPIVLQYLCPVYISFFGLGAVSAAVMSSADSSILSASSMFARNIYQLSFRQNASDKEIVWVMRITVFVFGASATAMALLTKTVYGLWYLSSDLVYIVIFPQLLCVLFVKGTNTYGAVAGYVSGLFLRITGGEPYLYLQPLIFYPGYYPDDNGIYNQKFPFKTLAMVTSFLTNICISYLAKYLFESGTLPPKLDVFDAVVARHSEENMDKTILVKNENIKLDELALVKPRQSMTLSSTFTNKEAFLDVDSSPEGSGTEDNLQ
# [7] = molecular target: Beta-galactosidase (Escherichia coli, UniProt Q8VNN2); experiment: Dose response counterscreen for EBI2 assay utilizing the enzyme, b-galactosidase.; assay type: functional
# [8] = molecular target: T3, Protein skinhead-1 (Caenorhabditis elegans, UniProt P34707); assay type: functional
# T3 sequence (P34707 whole entry): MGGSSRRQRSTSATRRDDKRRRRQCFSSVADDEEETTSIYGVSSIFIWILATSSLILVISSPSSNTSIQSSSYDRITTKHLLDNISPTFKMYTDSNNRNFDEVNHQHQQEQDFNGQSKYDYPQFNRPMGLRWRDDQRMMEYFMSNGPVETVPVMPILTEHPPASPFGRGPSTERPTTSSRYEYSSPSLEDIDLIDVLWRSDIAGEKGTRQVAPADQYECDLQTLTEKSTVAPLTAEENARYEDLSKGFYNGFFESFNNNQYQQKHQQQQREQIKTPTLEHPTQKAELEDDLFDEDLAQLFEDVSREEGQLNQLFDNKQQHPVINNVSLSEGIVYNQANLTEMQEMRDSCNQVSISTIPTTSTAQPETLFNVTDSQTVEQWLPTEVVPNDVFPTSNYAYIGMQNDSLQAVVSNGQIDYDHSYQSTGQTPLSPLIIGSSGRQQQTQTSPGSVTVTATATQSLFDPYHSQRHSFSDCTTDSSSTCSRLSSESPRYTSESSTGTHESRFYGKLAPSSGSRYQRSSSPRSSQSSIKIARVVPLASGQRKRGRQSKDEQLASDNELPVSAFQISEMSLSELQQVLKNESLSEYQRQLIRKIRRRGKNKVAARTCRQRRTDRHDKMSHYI
# [9] = cells; assay type: functional, cell-based
# [10] = Luminescence Cell-Based Dose Confirmation HTS to Identify Activators of 5'UTR Stem-Loop Driven Alpha-Synuclein mRNA Translation in H4 Neuroglioblastoma Cells. [Related pubchem assays: 1829 (Project Summary), 1814 (Primary HTS)]; assay type: functional
# [11] = Luminescence Cell-Based Dose Response HTS to Identify Activators of Luciferase Translation or Activity in H4 […] Cells. [Related pubchem assays: 1829 (Project Summary), 1814 (Primary HTS)]; assay type: functional
# [12] = molecular target: T4, Nuclear receptor subfamily 0 group B member 1 (Homo sapiens, UniProt P51843); assay type: functional, cell-based;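 further: HEK293T cells transfected with SF-1 and DAX-1 plus StAR promoter luciferase reporter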
# T4 sequence (P51843 whole entry): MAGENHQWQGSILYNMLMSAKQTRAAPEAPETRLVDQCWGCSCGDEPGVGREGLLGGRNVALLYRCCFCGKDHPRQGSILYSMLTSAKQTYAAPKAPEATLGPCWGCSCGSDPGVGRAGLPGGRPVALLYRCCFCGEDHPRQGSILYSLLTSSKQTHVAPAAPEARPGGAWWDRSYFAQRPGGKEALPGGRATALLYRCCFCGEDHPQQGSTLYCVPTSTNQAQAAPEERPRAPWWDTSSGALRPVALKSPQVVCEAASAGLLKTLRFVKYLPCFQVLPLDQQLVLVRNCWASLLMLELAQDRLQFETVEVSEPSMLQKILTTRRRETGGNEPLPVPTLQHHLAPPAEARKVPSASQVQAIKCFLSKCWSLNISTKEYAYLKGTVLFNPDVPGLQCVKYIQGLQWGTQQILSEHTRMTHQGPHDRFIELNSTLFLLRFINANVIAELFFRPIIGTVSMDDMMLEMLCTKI
# [13] = test system: H4; experiment: Luminescence Cell-Based Dose Response HTS to Identify Activators of 5'UTR Stem-Loop Driven Prion Protein mRNA Translation in H4 Neuroglioblastoma Cells. [Related pubchem assays: 1829 (Project Summary), 1814 (Primary HTS)]; assay type: functional; conditions: Homo sapiens
# [14] = LGR2 antagonists, dose response, cell-based, HEK293, CRE-luciferase reporter, cherry pick, set 2 (AID 743343); assay type: functional;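 further: transfected cells were stimulated with diluted bursicon conditioned medium after compound addition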
# [15] = MC4R antagonists, dose response, counter-screen for LGR2 antagonist project, cell-based, plate reader, cherry pick (AID 743444); assay type: functional;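 further: transfected HEK 293 cells stimulated with alpha-MSH peptide; potency of inhibitors of the alpha-MSH evoked signal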
# [16] = A549 cell cytotoxicity, dose response, cytotoxicity control, plate reader, cherry-pick, antagonist series (AID 743412); assay type: functional, cell-based
# [17] = HepG2 cell cytotoxicity, dose response, cytotoxicity control, plate reader, cherry-pick, antagonist series (AID 743416); assay type: functional, cell-based
# [18] = molecular target: T5, Galanin receptor type 3 (Homo sapiens, UniProt O60755); experiment: Fluorescence-based cell-based primary high throughput dose response assay to identify antagonists of the Galanin Receptor 3 (GalR3).; assay type: functional
# T5 sequence (O60755 whole entry): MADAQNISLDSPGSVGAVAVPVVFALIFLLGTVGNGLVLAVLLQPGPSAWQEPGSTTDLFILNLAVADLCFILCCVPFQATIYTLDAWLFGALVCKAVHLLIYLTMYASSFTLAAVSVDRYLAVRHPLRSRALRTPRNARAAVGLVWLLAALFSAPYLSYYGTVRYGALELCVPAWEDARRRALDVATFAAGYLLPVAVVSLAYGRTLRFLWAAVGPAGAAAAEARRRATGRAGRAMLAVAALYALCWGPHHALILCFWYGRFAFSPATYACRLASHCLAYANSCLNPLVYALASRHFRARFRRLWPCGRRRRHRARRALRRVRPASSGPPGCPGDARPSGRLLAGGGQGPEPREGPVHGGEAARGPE
# [19] = cells; assay type: functional, cell-based; conditions: HEK-CNG
# [20] = molecular target: T6, Heat shock factor protein 1 (Mus musculus, UniProt P38532); experiment: HSF1 potentiators in luciferase reporter cells, confirmation, cell-based, NIH3T3, luminescence, dose retest (AID 435004); assay type: functional;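 further: stress induced by proteasome inhibitor MG132 added 30 min after compound; luciferase reporter driven by HSF1 response element in NIH3T3 cells; actives raise luminescence as potentiators of the MG132 stress response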
# T6 sequence (P38532 whole entry): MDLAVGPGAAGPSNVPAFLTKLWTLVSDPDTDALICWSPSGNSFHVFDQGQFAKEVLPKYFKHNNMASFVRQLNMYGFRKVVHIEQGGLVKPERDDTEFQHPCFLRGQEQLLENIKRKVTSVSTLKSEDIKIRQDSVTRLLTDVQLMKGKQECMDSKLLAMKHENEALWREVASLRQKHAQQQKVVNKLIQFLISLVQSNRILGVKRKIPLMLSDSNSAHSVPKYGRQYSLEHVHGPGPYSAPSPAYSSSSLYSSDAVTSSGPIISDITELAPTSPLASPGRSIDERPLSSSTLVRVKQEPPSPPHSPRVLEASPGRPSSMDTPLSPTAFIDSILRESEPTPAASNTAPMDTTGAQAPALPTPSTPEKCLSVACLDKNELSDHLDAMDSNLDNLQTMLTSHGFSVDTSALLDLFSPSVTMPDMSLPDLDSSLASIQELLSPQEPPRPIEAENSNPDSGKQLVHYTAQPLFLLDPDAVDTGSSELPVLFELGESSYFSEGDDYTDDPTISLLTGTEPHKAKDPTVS
# [21] = THP-1 cell cytotoxicity, dose response, cytotoxicity control for Vif-APOBEC3G degradation inhibitor project, THP-1 cells (AID 1117359); assay type: functional; conditions: Human immunodeficiency virus 1, THP-1
# [22] = molecular target: T7, Rac GTPase-activating protein 1 (Homo sapiens, UniProt Q9H0H5); experiment: MgcRacGAP GTPase-activating activity inhibitors, confirmation, biochemical, ADP Hunter fluorescence, primary and confirmatory (AID 624330); assay type: functional
# T7 sequence (Q9H0H5 whole entry): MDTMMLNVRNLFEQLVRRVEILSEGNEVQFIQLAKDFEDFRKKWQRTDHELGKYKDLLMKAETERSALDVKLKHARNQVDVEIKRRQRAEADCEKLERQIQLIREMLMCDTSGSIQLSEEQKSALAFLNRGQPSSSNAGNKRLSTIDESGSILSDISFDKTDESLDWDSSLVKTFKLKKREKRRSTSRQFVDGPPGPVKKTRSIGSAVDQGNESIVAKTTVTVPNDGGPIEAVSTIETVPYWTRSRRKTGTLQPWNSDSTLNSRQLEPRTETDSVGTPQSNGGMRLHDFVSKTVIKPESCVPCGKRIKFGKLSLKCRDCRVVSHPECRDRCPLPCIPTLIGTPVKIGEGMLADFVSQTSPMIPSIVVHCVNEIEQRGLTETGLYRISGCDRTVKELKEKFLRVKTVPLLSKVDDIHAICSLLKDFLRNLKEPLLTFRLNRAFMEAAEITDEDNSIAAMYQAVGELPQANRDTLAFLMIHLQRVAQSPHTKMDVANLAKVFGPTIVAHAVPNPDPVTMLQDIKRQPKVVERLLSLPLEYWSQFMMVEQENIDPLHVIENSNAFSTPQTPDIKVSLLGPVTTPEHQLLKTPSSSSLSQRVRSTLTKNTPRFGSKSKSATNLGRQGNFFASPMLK
# [23] = HeLa cell cytotoxicity, dose response, cytotoxicity control for MgcRacGAP inhibitor project (AID 624300); assay type: functional
# Beta-galactosidase, sequence (Q8VNN2 whole entry): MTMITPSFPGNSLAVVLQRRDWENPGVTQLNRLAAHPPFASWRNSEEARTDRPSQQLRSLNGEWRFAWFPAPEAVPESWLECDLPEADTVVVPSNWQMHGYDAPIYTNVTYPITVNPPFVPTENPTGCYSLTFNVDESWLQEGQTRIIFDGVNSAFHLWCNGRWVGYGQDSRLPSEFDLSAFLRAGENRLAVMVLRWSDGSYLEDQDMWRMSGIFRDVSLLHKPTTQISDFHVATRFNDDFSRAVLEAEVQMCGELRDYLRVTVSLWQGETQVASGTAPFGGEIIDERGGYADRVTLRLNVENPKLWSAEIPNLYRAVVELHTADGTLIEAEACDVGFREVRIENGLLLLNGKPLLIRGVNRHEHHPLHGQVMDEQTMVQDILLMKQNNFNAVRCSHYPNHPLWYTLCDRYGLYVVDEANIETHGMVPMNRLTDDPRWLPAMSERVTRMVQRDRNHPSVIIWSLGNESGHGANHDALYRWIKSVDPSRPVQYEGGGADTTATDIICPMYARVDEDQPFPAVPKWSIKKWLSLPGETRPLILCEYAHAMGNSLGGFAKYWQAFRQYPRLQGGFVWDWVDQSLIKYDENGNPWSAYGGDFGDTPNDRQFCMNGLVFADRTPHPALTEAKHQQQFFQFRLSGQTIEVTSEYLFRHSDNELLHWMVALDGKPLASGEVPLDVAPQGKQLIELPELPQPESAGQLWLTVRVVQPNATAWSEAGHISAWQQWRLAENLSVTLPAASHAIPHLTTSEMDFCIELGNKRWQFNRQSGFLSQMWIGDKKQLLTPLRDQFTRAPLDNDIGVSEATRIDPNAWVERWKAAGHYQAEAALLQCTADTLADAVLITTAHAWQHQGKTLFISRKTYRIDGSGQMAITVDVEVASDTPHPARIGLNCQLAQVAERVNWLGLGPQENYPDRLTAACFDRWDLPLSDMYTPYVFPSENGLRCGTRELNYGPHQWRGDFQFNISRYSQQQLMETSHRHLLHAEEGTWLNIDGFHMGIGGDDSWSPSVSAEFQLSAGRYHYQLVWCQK
# Induced myeloid leukemia cell differentiation protein Mcl-1, sequence (Q07820 whole entry): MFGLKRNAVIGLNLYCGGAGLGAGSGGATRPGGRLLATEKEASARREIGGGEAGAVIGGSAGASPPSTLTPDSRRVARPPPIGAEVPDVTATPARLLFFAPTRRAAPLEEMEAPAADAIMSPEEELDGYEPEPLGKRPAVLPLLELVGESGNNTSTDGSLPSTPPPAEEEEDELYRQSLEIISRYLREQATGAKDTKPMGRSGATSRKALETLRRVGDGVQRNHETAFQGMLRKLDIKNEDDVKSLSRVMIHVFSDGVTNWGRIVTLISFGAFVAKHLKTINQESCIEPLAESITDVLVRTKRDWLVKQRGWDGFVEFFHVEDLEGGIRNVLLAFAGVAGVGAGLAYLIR
compound,measurement,setting,value
CN(C)c1ccc(NC(=O)c2cccc(C(=O)Nc3ccc(N(C)C)cc3)n2)cc1,IC50,[1],3.33 µM (active)
same,IC50,[2],40 µM (inactive)
Cc1cccc(C(=O)NNC(=S)NC(=O)c2ccccc2)c1,CC50,[3],24 µM (active)
same,EC50,[4],2.11 µM (active)
same,IC50,[2],> 122 µM (inactive)
same,CC50,[5],> 25 µM (active)
same,IC50,[6],7.59 µM (active)
C=CCc1cccc(CNc2nc3ccccc3n2CCN2CCOCC2)c1O,IC50,[7],> 80 µM (inactive)
O=C(c1cc(COc2ccc(F)cc2Cl)on1)N1C[C@H]2C[C@H]3C[C@@H](C2)C[C@H]1C3,IC50,[8],> 100 µM (inactive)
same,IC50,[9],> 67.5 µM (inactive)
same,EC50,[10],0.917 µM (active)
same,EC50,[11],26.2 µM (active)
same,IC50,[12],> 67.5 µM (inactive)
same,EC50,[13],47.6 µM (active)
COc1ccc(C(=O)Nc2nnc(SCC(=O)NCc3ccco3)s2)c(OC)c1,AC50,[14],6.14 µM (active)
same,AC50,[15],4.64 µM (active)
same,AC50,[16],> 52 µM (inactive)
same,IC50,[9],> 67.5 µM (inactive)
same,AC50,[17],> 52 µM (inactive)
same,IC50,[12],> 67.5 µM (inactive)
CC(C)NC(=O)NC(=O)COC(=O)Cc1c(F)cccc1Cl,IC50,[18],> 29.9 µM (inactive)
same,EC50,[19],> 29.9 µM (inactive)
O=C(/C=C/c1ccc(OCCCF)cc1)N1CCN(Cc2ccccc2)CC1,IC50,[7],> 80 µM (inactive)
S=C(N/N=C/c1cccs1)NC1CC2CCC1C2 (stereo not given),EC50,[20],> 260 µM (inactive)
same,IC50,[2],> 122 µM (inactive)
same,CC50,[21],> 40 µM (active)
COc1ccc(-c2cc(NC=O)c3ncc(-c4cc(OC)c(OC)c(OC)c4)n3c2)cc1,IC50,[9],> 67.6 µM (inactive)
same,IC50,[12],> 67.6 µM (inactive)
C/C(=N\Nc1ccc(S(=O)(=O)N2CCCCC2)cn1)c1ccc(O)cc1,IC50,[22],23.4 µM (active)
same,CC50,[23],100 µM (active)
